Assay [1] deals with T1, Substance-K receptor (Homo sapiens) (UniProt P21452).
T1 sequence (whole entry): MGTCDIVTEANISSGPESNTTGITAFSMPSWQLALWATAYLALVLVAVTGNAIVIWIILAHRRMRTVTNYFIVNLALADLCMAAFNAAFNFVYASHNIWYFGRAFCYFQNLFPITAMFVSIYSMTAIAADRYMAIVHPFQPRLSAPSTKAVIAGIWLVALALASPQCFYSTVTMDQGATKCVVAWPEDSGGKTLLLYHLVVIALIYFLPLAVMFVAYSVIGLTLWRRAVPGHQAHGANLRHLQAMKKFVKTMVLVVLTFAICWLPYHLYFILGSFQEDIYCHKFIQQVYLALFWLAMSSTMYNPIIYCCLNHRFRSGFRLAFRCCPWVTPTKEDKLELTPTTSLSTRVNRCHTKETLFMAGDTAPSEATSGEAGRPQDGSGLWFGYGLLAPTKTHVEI
As to the kind of experiment: Displacement of [125I]neurokinin A from human tachykinin NK2 receptor expressed in CHO cell at 10 uM. In kind it is cell-based. Background: In a radioligand displacement assay an active substance lowers the binding of a labelled ligand.

Assay [2] deals with Integrin alpha-4/beta-1 (Homo sapiens) (UniProt P05556+P13612). Kind of assay: Inhibition of integrin alpha-4-beta-1-mediated U937 and Jurkat cell adhesion to VCAM-1 coated surface up to 100 uM by BCECF fluorescence measurement. In kind it is cell-based.

Active and inactive are the calls of the source. No cut-off for these calls is given here.

As usually defined, the inhibition is the drop in the measured response relative to a control, in per cent. Compound `COC(=O)C1=C2C[C@@H](C(=O)OCc3ccccc3)NC(=O)[C@H](C)NC(=O)[C@H](Cc3ccccc3)NC(=O)[C@H](Cc3ccccc3)NC(=O)[C@H](Cc3ccccc3)NC(=O)[C@H](C)NC(=O)[C@H]3O[C@H](O2)[C@H](S1)[C@@H](O)[C@@H]3O` came in with an inhibition in assay [1] of 25%. For the compound `CC[C@H](C)[C@@H]1NC(=O)[C@H](CCC(=O)O)NC(=O)[C@H]2O[C@@H]3OC(=C(C(=O)OC)S[C@@H]3[C@@H](O)[C@@H]2O)C[C@@H](C(=O)O)NC(=O)[C@H](C(C)C)NC(=O)[C@H](CC(=O)O)NC(=O)[C@H](CC(C)C)NC1=O`, the inhibition result in assay [2] is “inactive”.

For the origin of these results see ChEMBL document CHEMBL1151907, “Cyclic glycopeptidomimetics through a versatile sugar-based scaffold” (Bioorg Med Chem Lett, 2009).
